Experiments:
[1] = molecular target: T1, TgCet (RNA triphosphatase) (Toxoplasma gondii, UniProt S8F0G9); assay: ATPase assay; format: biochemical
T1 sequence (S8F0G9 1-920): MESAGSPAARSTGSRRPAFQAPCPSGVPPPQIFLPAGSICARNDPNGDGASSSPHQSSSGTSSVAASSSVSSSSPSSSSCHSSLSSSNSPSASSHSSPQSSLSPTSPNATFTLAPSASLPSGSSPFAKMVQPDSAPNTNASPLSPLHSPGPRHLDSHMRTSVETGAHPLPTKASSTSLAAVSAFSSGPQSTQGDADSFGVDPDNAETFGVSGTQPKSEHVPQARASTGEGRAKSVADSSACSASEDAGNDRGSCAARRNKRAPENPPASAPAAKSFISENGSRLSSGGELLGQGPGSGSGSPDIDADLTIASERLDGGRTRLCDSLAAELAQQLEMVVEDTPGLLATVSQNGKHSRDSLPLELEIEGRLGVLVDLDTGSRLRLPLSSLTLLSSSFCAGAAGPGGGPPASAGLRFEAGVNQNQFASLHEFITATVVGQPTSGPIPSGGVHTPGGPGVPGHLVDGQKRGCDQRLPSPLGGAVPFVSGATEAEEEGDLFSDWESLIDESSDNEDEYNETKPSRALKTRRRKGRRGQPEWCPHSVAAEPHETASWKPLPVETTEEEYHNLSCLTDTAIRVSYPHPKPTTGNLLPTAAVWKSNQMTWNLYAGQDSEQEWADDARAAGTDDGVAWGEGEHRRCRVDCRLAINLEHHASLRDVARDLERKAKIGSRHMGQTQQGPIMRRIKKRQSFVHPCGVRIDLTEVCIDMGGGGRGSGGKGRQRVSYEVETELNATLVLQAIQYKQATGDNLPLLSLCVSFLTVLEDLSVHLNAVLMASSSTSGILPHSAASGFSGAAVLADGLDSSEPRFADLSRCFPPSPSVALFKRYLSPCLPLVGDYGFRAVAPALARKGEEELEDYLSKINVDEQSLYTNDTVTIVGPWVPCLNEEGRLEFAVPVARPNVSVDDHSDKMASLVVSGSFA

[2] = molecular target: T2, TgCmt (guanine-N7 methyltransferase) (Toxoplasma gondii, UniProt S8F527); assay: in vitro RNA cap methylation, anti-m7G immuno-dot blot; format: biochemical
T2 sequence (S8F527 716-1283): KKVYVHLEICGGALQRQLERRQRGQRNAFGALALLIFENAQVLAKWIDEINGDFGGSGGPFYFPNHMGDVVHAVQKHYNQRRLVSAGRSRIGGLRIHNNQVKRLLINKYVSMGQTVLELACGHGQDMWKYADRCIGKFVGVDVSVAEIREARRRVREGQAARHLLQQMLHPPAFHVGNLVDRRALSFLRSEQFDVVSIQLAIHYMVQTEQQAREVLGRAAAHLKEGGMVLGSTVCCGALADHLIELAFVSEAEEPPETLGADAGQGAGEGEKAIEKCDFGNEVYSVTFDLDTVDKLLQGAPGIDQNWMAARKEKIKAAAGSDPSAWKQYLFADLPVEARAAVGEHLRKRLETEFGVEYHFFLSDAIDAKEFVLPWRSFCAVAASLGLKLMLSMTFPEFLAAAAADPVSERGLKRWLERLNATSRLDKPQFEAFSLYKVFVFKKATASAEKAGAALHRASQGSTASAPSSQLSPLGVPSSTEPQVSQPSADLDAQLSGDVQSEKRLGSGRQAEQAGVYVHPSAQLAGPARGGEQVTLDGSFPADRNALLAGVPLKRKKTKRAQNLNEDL

Row | SMILES | IC50 [1] [nM] | in vitro RNA cap methylation, anti-m7G immuno-dot blot [2]
1 | O=c1c(O)c(-c2cc(O)c(O)c(O)c2)oc2cc(O)cc(O)c12 [Myricetin] | 400 | –
2 | Nc1ncnc2c1ncn2[C@@H]1O[C@H](C[C@@H](N)CC[C@H](N)C(=O)O)[C@@H](O)[C@H]1O [sinefungin] | – | sinefungin inhibits m^7GpppN32 synthesis in a concentration-dependent manner

From publication PMC12215270 (Nature Communications, 2025)
